Results on two molecules are retold here after ChEMBL document CHEMBL2321679, “Immunomodulatory activity of an anti-HSV-1 synthetic stigmastane analog” (Bioorg Med Chem, 2013).

Experiment [1] concerns J774.A1. The experiment is described as follows: Immunomodulatory activity in LPS-stimulated mouse J744A.1 cells assessed as increase of IL-6 gene expression at 40 uM after 6 hrs by RT-PCR analysis relative to control. The experiment is classed as functional.
Experiment [2] deals with J774.A1. The experiment is described as follows: Immunomodulatory activity in LPS-stimulated mouse J744A.1 cells assessed as increase of Csf1 gene expression at 40 uM after 6 hrs by RT-PCR analysis relative to control. It is filed as functional.
Experiment [3] is described as follows: Immunomodulatory activity in HSV1 KOS infected human HCLE cells assessed as increase of CSF2 (GM-CSF) gene expression at 40 uM after 6 hrs by RT-PCR analysis relative to control. The experiment is classed as functional.
For experiment [4], the system named is J774.A1. The experiment is described as follows: Immunomodulatory activity in LPS-stimulated mouse J744A.1 cells assessed as increase of Ifi47 gene expression at 40 uM after 6 hrs by RT-PCR analysis relative to control. It is filed as functional.
Experiment [5] concerns the target Transcription factor p65 (Mus musculus) (UniProt Q04207). Put plainly: Effect on NF-kappaB p65 activation in LPS-stimulated mouse J774A.1 cells assessed as NF-kappaB p65 translocation at 40 uM after 24 hrs by indirect immunofluorescence assay.
The target in experiment [6] is Transcription factor p65 (Homo sapiens) (UniProt Q04206). The experiment is described as follows: Inhibition of NF-kappaB p65-mediated TNFalpha release in HSV1 KOS infected human IOBA-NHC cells at 40 uM after 24 hrs by ELISA. It is filed as cell-based.
Sequence of Transcription factor p65 (Homo sapiens) (Q04206 whole entry): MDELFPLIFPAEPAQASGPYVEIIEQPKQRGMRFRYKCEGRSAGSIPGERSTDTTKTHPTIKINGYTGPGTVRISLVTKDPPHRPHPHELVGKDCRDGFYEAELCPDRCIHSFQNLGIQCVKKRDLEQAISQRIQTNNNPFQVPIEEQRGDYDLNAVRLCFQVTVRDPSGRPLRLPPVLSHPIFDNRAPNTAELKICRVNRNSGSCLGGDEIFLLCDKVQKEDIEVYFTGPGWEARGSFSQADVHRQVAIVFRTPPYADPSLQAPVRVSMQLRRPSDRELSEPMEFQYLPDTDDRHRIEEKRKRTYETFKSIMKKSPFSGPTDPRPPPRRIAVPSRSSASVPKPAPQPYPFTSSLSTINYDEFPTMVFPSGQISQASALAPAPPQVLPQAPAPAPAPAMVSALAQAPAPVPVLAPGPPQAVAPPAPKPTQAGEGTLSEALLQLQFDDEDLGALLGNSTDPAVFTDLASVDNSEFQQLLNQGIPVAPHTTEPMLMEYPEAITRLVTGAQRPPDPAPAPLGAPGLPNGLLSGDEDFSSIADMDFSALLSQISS
In experiment [7] the test system is J774.A1. The experiment is described as follows: Immunomodulatory activity in LPS-stimulated mouse J744A.1 cells assessed as increase of Il23a gene expression at 40 uM after 6 hrs by RT-PCR analysis relative to control. The experiment is classed as functional.
The target in experiment [8] is Transcription factor p65 (Homo sapiens) (UniProt Q04206). Put plainly: Inhibition of NF-kappaB p65-mediated IL-8 release in HSV1 KOS infected human HCLE cells at 40 uM after 24 hrs by ELISA. The experiment is classed as cell-based.
The target is the same in experiment [9]. The experiment is described as follows: Effect on NF-kappaB p65-mediated TNFalpha release in human HCLE cells at 40 uM after 24 hrs by ELISA. It is filed as cell-based.
In experiment [10] the test system is J774.A1. The experiment is described as follows: Inhibition of LPS-induced […] production in mouse J744A.1 cells at 40 uM after 24 hrs by ELISA. It is filed as functional. Particulars: J774.A1, 24 h.
The subject of experiment [11] is J774.A1. Put plainly: Inhibition of LPS-induced TNFalpha production in mouse J744A.1 cells after 24 hrs by ELISA. It is filed as functional, cell-based.
For experiment [12], the target named is Transcription factor p65 (Homo sapiens) (UniProt Q04206). The experiment is described as follows: Effect on NF-kappaB p65-mediated IL-6 release in human HCLE cells at 40 uM after 24 hrs by ELISA. It is filed as cell-based.
Experiment [13] deals with J774.A1. The experiment is described as follows: Immunomodulatory activity in LPS-stimulated mouse J744A.1 cells assessed as increase of Atf3 gene expression at 40 uM after 6 hrs by RT-PCR analysis relative to control. It is filed as functional.
The target in experiment [14] is Transcription factor p65 (Homo sapiens) (UniProt Q04206). The experiment is described as follows: Increase of NF-kappaB p65-mediated IL-8 release in human HCLE cells at 40 uM after 24 hrs by ELISA. It is filed as cell-based.
In experiment [15] the test system is J774.A1. The experiment is described as follows: Immunomodulatory activity in LPS-stimulated mouse J744A.1 cells assessed as increase of CXCL11 gene expression at 40 uM after 6 hrs by RT-PCR analysis relative to control. It is filed as functional.
Experiment [16] has as its system J774.A1. Put plainly: Immunomodulatory activity in LPS-stimulated mouse J744A.1 cells assessed as decrease of Il1b gene expression at 40 uM after 6 hrs by RT-PCR analysis relative to control. It is filed as functional.
Experiment [17] deals with J774.A1. Put plainly: Immunomodulatory activity in LPS-stimulated mouse J744A.1 cells assessed as increase of TLR4 gene expression at 40 uM after 6 hrs by RT-PCR analysis relative to control. The experiment is classed as functional.
Experiment [18] concerns the target Transcription factor p65 (Homo sapiens) (UniProt Q04206). Put plainly: Increase of NF-kappaB p65-mediated IL-8 release in human IOBA-NHC cells at 40 uM after 24 hrs by ELISA. The experiment is classed as cell-based.
Experiment [19] has as its system J774.A1. The experiment is described as follows: Immunomodulatory activity in LPS-stimulated mouse J744A.1 cells assessed as increase of Socs2 gene expression at 40 uM after 6 hrs by RT-PCR analysis relative to control. The experiment is classed as functional.
A short description of experiment [20]: Immunomodulatory activity in HSV1 KOS infected human HCLE cells assessed as increase of IL-8 gene expression at 40 uM after 6 hrs by RT-PCR analysis relative to control. The experiment is classed as functional.
Experiment [21] is described as follows: Immunomodulatory activity in HSV1 KOS infected human HCLE cells assessed as increase of CXCL2 gene expression at 40 uM after 6 hrs by RT-PCR analysis relative to control. It is filed as functional.
Experiment [22] addresses Transcription factor p65 (Homo sapiens) (UniProt Q04206). The experiment is described as follows: Effect on NF-kappaB p65-mediated IL-6 release in human IOBA-NHC cells at 40 uM after 24 hrs by ELISA. It is filed as cell-based.
For experiment [23], the system named is J774.A1. The experiment is described as follows: Immunomodulatory activity in LPS-stimulated mouse J744A.1 cells assessed as increase of Slpi gene expression at 40 uM after 6 hrs by RT-PCR analysis relative to control. The experiment is classed as functional.
The subject of experiment [24] is J774.A1. Put plainly: Inhibition of LPS-induced IL-6 production in mouse J744A.1 cells after 24 hrs by ELISA. It is filed as functional, cell-based.
Experiment [25] relates to J774.A1. The experiment is described as follows: Immunomodulatory activity in LPS-stimulated mouse J744A.1 cells assessed as increase of CXCL10 gene expression at 40 uM after 6 hrs by RT-PCR analysis relative to control. The experiment is classed as functional.
Experiment [26] addresses Transcription factor p65 (Homo sapiens) (UniProt Q04206). The experiment is described as follows: Inhibition of NF-kappaB p65-mediated IL-8 release in HSV1 KOS infected human IOBA-NHC cells at 40 uM after 24 hrs by ELISA. The experiment is classed as cell-based.
The target is the same in experiment [27]. The experiment is described as follows: Inhibition of NF-kappaB p65 activation in HSV1 KOS infected human HCLE cells assessed as reduction of NF-kappaB p65 translocation at 40 uM after 24 hrs by indirect immunofluorescence assay. It is filed as cell-based.
Experiment [28] has as its system J774.A1. Put plainly: Immunomodulatory activity in LPS-stimulated mouse J744A.1 cells assessed as increase of IL-10 gene expression at 40 uM after 6 hrs by RT-PCR analysis relative to control. It is filed as functional.
Experiment [29] in a line: Immunomodulatory activity in HSV1 KOS infected human HCLE cells assessed as increase of IL-1alpha gene expression at 40 uM after 6 hrs by RT-PCR analysis relative to control. It is filed as functional.
Experiment [30] deals with Transcription factor p65 (Homo sapiens) (UniProt Q04206). Put plainly: Inhibition of NF-kappaB p65-mediated IL-6 release in HSV1 KOS infected human IOBA-NHC cells at 40 uM after 24 hrs by ELISA. It is filed as cell-based.
Experiment [31] deals with J774.A1. The experiment is described as follows: Immunomodulatory activity in LPS-stimulated mouse J744A.1 cells assessed as increase of Il12b gene expression at 40 uM after 6 hrs by RT-PCR analysis relative to control. It is filed as functional.
The target of experiment [32] is Transcription factor p65 (Homo sapiens) (UniProt Q04206). The experiment is described as follows: Effect on NF-kappaB p65-mediated TNFalpha release in human IOBA-NHC cells at 40 uM after 24 hrs by ELISA. The experiment is classed as cell-based.
Experiment [33] is described as follows: Immunomodulatory activity in HSV1 KOS infected human HCLE cells assessed as increase of IL-1RL1 gene expression at 40 uM after 6 hrs by RT-PCR analysis relative to control. It is filed as functional.
The test system of experiment [34] is J774.A1. Put plainly: Immunomodulatory activity in LPS-stimulated mouse J744A.1 cells assessed as decrease of Dusp2 gene expression at 40 uM after 6 hrs by RT-PCR analysis relative to control. The experiment is classed as functional.
Experiment [35] has as its target Transcription factor p65 (Homo sapiens) (UniProt Q04206). Put plainly: Inhibition of NF-kappaB p65 activation in HSV1 KOS infected human IOBA-NHC cells assessed as reduction of NF-kappaB p65 translocation at 40 uM after 24 hrs by indirect immunofluorescence assay. The experiment is classed as cell-based.

Calls of active or inactive are those of the source. The rule behind the calls is not given here.

Sequence of Transcription factor p65 (Mus musculus) (Q04207 whole entry): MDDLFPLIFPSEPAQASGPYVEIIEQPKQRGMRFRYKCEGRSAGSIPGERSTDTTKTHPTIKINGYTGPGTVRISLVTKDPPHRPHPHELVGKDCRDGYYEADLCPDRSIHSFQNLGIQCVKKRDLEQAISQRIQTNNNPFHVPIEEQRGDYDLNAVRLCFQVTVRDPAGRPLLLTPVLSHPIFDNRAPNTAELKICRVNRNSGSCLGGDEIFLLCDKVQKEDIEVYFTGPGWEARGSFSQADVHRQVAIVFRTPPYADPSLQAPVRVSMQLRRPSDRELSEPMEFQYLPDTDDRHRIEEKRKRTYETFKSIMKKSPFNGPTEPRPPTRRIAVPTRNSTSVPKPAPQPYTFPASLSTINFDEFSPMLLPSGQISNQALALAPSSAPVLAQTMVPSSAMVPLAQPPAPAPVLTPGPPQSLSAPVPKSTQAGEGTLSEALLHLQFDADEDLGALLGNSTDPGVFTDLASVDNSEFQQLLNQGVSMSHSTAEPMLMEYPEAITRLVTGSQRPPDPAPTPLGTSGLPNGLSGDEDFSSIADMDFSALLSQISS

In the case of `CC[C@@H](C(C)C)[C@H](O)[C@@H](O)[C@@H](C)[C@H]1CC[C@H]2[C@@H]3CCC4=CC(=O)CC[C@]4(C)[C@H]3CC[C@]12C`, the “fold change (FC)” value is 1.97 in experiment [1]; 4.42 in [2]; 2.2 in [3]; 2.49 in experiment [4]; 3.19 in experiment [7]; 4.41 in [13]. Besides, the “fold change (FC)” value in experiment [15] worked out at 6.01; in [16] it was 2.58; in experiment [17] it was 1.95; in [19], 2.29; in [20], 4.4; in experiment [21], 2.9. Besides, the “fold change (FC)” value in experiment [23] is 1.53; in [25], 11.41; in experiment [28], 1.27; in [29] it was 2.9; in experiment [31] it was 4.19; in experiment [33] it was 5.2. Besides, in experiment [34], the “fold change (FC)” value was found to be 3.86. Further, the Activity in experiment [5] stood at 87.9%. The inhibition result in [6] and in experiment [30] was “inactive” in each case. For the same molecule, the inhibition result in experiment [8] and in experiment [26] was “Active” in each case. Besides, the outcome in experiment [9], in experiment [12], in experiment [22] and in experiment [32] was inactive. This molecule displayed an inhibition at 40 µM in [10] of 77.5%. The inhibition entry in experiment [11] is “Dose-dependent effect”; in [24] it was “Dose-dependent effect”; in experiment [27] it was 5.7%; in [35], 22.2%. Further, the IC50 in [11] (J774.A1, 24 h) is 7 µM; in experiment [24] (J774.A1, 24 h), above 40 µM. The outcome in experiment [14] and in experiment [18] was Active.
For the molecule `C[C@@H]1C[C@H]2[C@@H]3CCC4=CC(=O)C=C[C@]4(C)[C@@]3(F)[C@@H](O)C[C@]2(C)[C@@]1(O)C(=O)CO`, in experiment [5], the Activity was determined as 100%. Also, the inhibition result in [6], in [8], in [26] and in experiment [30] was “Active” throughout. Also, the inhibition entry in experiment [27] and in experiment [35] was “inactive” each time.
